Experimental data from US9845291B2, “Estrogen receptor modulators and uses thereof” (Genentech, Inc., priority 2014, dated 2017).

Target: estrogen receptor alpha (ESR1) (Homo sapiens, UniProt P03372)
Experiment: cell-based
Conditions: for ER-alpha MCF7 HCS Sinf: MCF7 breast cancer cells, 4 hours, plateau of the maximal effect, DMSO and Fulvestrant define 0% and 100% changes in ESR1
Method: Where more than one name is associated with a Formula I compound or intermediate, the chemical structure shall define the compound.
Cell plates were incubated at 37° C., for 4 hours. Fixation and permeabilization were carried out using a Biotek EL406 plate washer and dispenser as follows. […] Samples were incubated 30 minutes. Well contents was aspirated and 50 ul/well of Phosphate Buffered Saline (PBS) containing 0.5% w/v bovine serum albumen, 0.5% v/v Triton X-100 (Antibody Dilution Buffer) was added to each well. Samples were incubated for 30 minutes. Well contents were aspirated and washed 3 times with 100 ul/well of PBS. Immunofluorescence staining of estrogen receptor alpha (ESR1) was carried out using a Biotek EL406 plate washer and dispenser as follows. […] Samples were incubated for 2 hours at room temperature. Samples were washed 4 times with 100 ul/well of PBS. […] Samples were incubated for 2 hours at room temperature. Samples were washed 3 times with 100 ul/well of PBS using a Biotek EL406. Quantitative fluorescence imaging of ESR1 was carried out using a Cellomics Arrayscan V (Thermo). […] Channel 1 (DNA stain) was used to define the nuclear region (Circ). […] Data analysis was carried out using Genedata Screener Software, with DMSO and 5 nM Fulvestrant treated samples being used to define the 0% and 100% changes in ESR1. The “Robust Fit” method was used to define the inflexion point of curve (EC50) and the plateau of the maximal effect (Sin f).

Chain of estrogen receptor alpha (ESR1) (P03372 whole entry): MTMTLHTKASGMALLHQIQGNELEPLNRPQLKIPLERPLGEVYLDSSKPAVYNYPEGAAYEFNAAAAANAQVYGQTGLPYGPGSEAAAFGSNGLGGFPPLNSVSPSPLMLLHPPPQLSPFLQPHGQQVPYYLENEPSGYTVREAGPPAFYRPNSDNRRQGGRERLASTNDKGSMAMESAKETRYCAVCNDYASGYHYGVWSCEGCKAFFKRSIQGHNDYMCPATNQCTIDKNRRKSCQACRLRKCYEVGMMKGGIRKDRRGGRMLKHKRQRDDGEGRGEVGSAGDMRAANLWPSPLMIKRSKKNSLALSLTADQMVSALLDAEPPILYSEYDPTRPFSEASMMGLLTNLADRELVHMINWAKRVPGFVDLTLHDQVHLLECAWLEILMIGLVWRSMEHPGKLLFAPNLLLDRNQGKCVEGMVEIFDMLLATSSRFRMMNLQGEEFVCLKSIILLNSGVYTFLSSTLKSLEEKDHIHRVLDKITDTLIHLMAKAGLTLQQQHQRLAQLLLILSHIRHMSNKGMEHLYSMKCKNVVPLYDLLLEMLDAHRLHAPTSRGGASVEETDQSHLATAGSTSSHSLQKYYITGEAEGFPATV

Structure (SMILES)	EC50	ER-alpha MCF7 HCS Sinf
C[C@@H](COc1ccc([C@@H]2Oc3ccc(O)cc3S[C@@H]2c2ccc(O)cc2)cc1)N1CC[C@@H](CF)C1 (mixture of isomers) [Example 30, 2-(4-((S)-2-((R)-3-(Fluoromethyl)pyrrolidin-1-yl)propoxy)phenyl)-3-(4-hydroxyphenyl)-2,3-dihydrobenzo[b][1,4]oxathiin-6-ol]	1.1 nM	−99%
Oc1ccc([C@H]2Sc3cc(O)ccc3O[C@H]2c2ccc(OCCN3CC[C@@H](CF)C3)cc2)cc1 (racemic) [Example 28, 2-(4-(2-((R)-3-(Fluoromethyl)pyrrolidin-1-yl)ethoxy)phenyl)-3-(4-hydroxyphenyl)-2,3-dihydrobenzo[b][1,4]oxathiin-6-ol]	1 nM	−97%
Oc1ccc([C@H]2Sc3cc(O)ccc3O[C@H]2c2ccc(OCCN3CC(CF)C3)cc2)cc1 (racemic) [Example 29, 2-(4-(2-(3-(Fluoromethyl)azetidin-1-yl)ethoxy)phenyl)-3-(4-hydroxyphenyl)-2,3-dihydrobenzo[b][1,4]oxathiin-6-ol]	0.55 nM	−101%
Oc1cccc([C@H]2Sc3cc(O)ccc3O[C@H]2c2ccc(OCCN3CC(CF)C3)cc2)c1 (racemic) [Example 31, 2-(4-(2-(3-(Fluoromethyl)azetidin-1-yl)ethoxy)phenyl)-3-(3-hydroxyphenyl)-2,3-dihydrobenzo[b][1,4]oxathiin-6-ol]	1.1 nM	−97%
Oc1ccc2c(c1)CC[C@H](c1ccccc1)[C@@H]2c1ccc(OCCN2CC(CF)C2)cc1 (racemic) [Example 34, cis-5-(4-(2-(3-(Fluoromethyl)azetidin-1-yl)ethoxy)phenyl)-6-phenyl-5,6,7,8-tetrahydronaphthalen-2-ol]	0.016 nM	−99.3%
Cc1c(-c2ccc(O)cc2)n(Cc2ccc(OCCN3CC(CF)C3)cc2)c2ccc(O)cc12 [Example 1, 1-(4-(2-(3-(Fluoromethyl)azetidin-1-yl)ethoxy)benzyl)-2-(4-hydroxyphenyl)-3-methyl-1H-indol-5-ol]	0.46 nM	−95%
Cc1c(-c2ccc(O)cc2)n(Cc2ccc(OC[C@H](C)N3CC[C@@H](CF)C3)cc2)c2ccc(O)cc12 [Example 2, 1-(4-((S)-2-((R)-3-(Fluoromethyl)pyrrolidin-1-yl)propoxy)benzyl)-2-(4-hydroxyphenyl)-3-methyl-1H-indol-5-ol]	1.6 nM	−93%
Cc1c(-c2ccc(F)cc2)n(Cc2ccc(OCCN3CC(CF)C3)cc2)c2ccc(O)cc12 [Example 3, 1-(4-(2-(3-(Fluoromethyl)azetidin-1-yl)ethoxy)benzyl)-2-(4-fluorophenyl)-3-methyl-1H-indol-5-ol]	5.5 nM	−92%
Cc1c(-c2ccccc2)n(Cc2ccc(OCCN3CC(CF)C3)cc2)c2ccccc12 [Example 4, 1-(4-(2-(3-(Fluoromethyl)azetidin-1-yl)ethoxy)benzyl)-3-methyl-2-phenyl-1H-indole]	200 nM	−81%
Cc1c(-c2ccc(O)cc2)n(Cc2ccc(OCCN3CC(CF)C3)cc2)c2ccccc12 [Example 5, 4-(1-(4-(2-(3-(Fluoromethyl)azetidin-1-yl)ethoxy)benzyl)-3-methyl-1H-indol-2-yl)phenol]	65 nM	−93%
Cn1c(-c2ccc(O)cc2)c(C(=O)c2ccc(OCCN3CC(CF)C3)cc2)c2ccc(O)cc21 [Example 6, (4-(2-(3-(Fluoromethyl)azetidin-1-yl)ethoxy)phenyl)(6-hydroxy-2-(4-hydroxyphenyl)-1-methyl-1H-indol-3-yl)methanone]	550 nM	−50%
CS(=O)(=O)c1ccc(-c2ccc3cc(O)ccc3c2Oc2ccc(OCCN3CC(CF)C3)cc2)cc1 [Example 7, 5-(4-(2-(3-(Fluoromethyl)azetidin-1-yl)ethoxy)phenoxy)-6-(4-(methylsulfonyl)phenyl)naphthalen-2-ol]	1.6 nM	−95%
CS(=O)(=O)c1ccc(-c2ccc3cc(O)ccc3c2Oc2ccc(OCCN3CC[C@@H](CF)C3)cc2)cc1 [Example 8, (R)-5-(4-(2-(3-(Fluoromethyl)pyrrolidin-1-yl)ethoxy)phenoxy)-6-(4-(methylsulfonyl)phenyl)naphthalen-2-ol]	0.27 nM	−95%
O=C(c1ccc(OCCN2CC(CF)C2)cc1)c1c(-c2ccc(O)cc2)sc2cc(O)ccc12 [Example 9, (4-(2-(3-(fluoromethyl)azetidin-1-yl)ethoxy)phenyl)(6-hydroxy-2-(4-hydroxyphenyl)benzo[b]thiophen-3-yl)methanone]	1.1 nM	−97%
O=C(c1ccc(OCCN2CC(CF)C2)cc1)c1c(-c2ccc(F)cc2)sc2cc(O)ccc12 [Example 10, (4-(2-(3-(fluoromethyl)azetidin-1-yl)ethoxy)phenyl)(2-(4-fluorophenyl)-6-hydroxyhenzo[b]thiophen-3-yl)methanone]	0.45 nM	−96%
Oc1ccc(-c2sc3cc(O)ccc3c2Oc2ccc(OCCN3CC(CF)C3)cc2)cc1 [Example 11, 3-(4-(2-(3-(Fluoromethyl)azetidin-1-yl)ethoxy)phenoxy)-2-(4-hydroxyphenyl)benzo[b]thiophen-6-ol]	0.13 nM	−94%
COc1ccc(-c2sc3cc(O)ccc3c2Oc2ccc(OC[C@H](C)N3CC[C@@H](CF)C3)cc2)cc1 [Example 12, 3-(4-((S)-2-((R)-3-(Fluoromethyl)pyrrolidin-1-yl)propoxy)phenoxy)-2-(4-methoxyphenyl)benzo [6]thiophen-6-ol]	310 nM	−50%
CCN(Cc1ccc(OCCN2CC(CF)C2)cc1)c1cc(OC)ccc1C1CCc2cc(O)ccc2C1 (stereo not shown) [Example 13, 6-(2-(Ethyl(4-(2-(3-(fluoromethyl)azetidin-1-yl)ethoxy)benzyl)amino)-4-methoxyphenyl)-5,6,7,8-tetrahydronaphthalen-2-ol]	7.5 nM	−55%
Oc1ccc(-c2onc(-c3ccccc3Cl)c2-c2ccc(OCCN3CC(CF)C3)cc2)cc1 [Example 14, 4-(3-(2-Chlorophenyl)-4-(4-(2-(3-(fluoromethyl)azetidin-1-yl)ethoxy)phenyl)isoxazol-5-yl)phenol]	0.21 nM	−99%
Oc1ccc(-c2onc(-c3ccccc3Cl)c2-c2ccc(OCCN3CC[C@@H](CF)C3)cc2)cc1 [Example 15, (R)-4-(3-(2-Chlorophenyl)-4-(4-(2-(3-(fluoromethyl)pyrrolidin-1-yl)ethoxy)phenyl)isoxazol-5-yl)phenol]	2.3 nM	−84%
Oc1ccc(-c2snc(-c3ccccc3Cl)c2-c2ccc(OCCN3CC(CF)C3)c(F)c2)cc1 [Example 16, 4-(3-(2-Chloro-phenyl)-4-{3-fluoro-4-[2-(3-fluoromethyl-azetidin-1-yl)-ethoxy]-phenyl}-isothiazol-5-yl)-phenol]		−99.2%
O=C(c1ccc(OCCN2CC(CF)C2)c(F)c1)c1c(-c2ccccc2Cl)noc1-c1ccc(O)cc1 [Example 17, [3-(2-Chloro-phenyl)-5-(4-hydroxy-phenyl)-isoxazol-4-yl]-{3-fluoro-4-[2-(3-fluoromethyl-azetidin-1-yl)-ethoxy]-phenyl}-methanone]	0.3 nM	−102%
Oc1ccc(C(=C2CCCCC2)c2ccc(OCCN3CC(CF)C3)cc2)cc1 [Example 18, 4-(Cyclohexylidene-{4-[2-(3-fluoromethyl-azetidin-1-yl)-ethoxy]-phenyl}-methyl)-phenol]	12 nM	−89%
CC/C(=C(\c1ccccc1)c1ccc(OCCN2CC[C@@H](CF)C2)cc1)c1ccccc1 [Example 19, (R,Z)-1-(2-(4-(1,2-Diphenylbut-1-en-yl)phenoxy)ethyl)-3-(fluoromethyl)pyrrolidine]	15 nM	−75%
CC/C(=C(\c1ccccc1)c1ccc(OC[C@H](C)N2CC[C@@H](CF)C2)cc1)c1ccccc1 [Example 20, (R)-1-((S)-1-(4-((Z)-1,2-Diphenylbut-1-en-1-yl)phenoxy)propan-2-yl)-3-(fluoromethyl)pyrrolidine]	24 nM	−73%
CC/C(=C(\c1ccccc1)c1ccc(OCCN2CC(CF)C2)cc1)c1ccccc1 [Example 21, (Z)-1-(2-(4-(1,2-Diphenylbut-1-en-1-yl)phenoxy)ethyl)-3-(fluoromethyl)azetidine]	11 nM	−97%
CC/C(=C(\c1ccc(O)cc1)c1ccc(OCCN2CC[C@@H](CF)C2)cc1)c1ccccc1 [Example 22, (R,Z)-4-(1-(4-(2-(3-(Fluoromethyl)pyrrolidin-1-yl)ethoxy)phenyl)-2-phenylbut-1-en-yl)phenol]	0.58 nM	−83%
CC/C(=C(\c1ccc(O)cc1)c1ccc(OCCN2CC(CF)C2)cc1)c1ccccc1 [Example 23]	0.59 nM	−95%
